# Test results: patent US20050192264A1, “Slow release steroid composition” (priority 2004, published 2005)
# Where two headings read alike, the source gives them in different places.
# Key:
# [1] = Flow-through dissolution of TA samples in 20% methanol in water; assay type: physicochemical; settings: solvent solution 20% methanol in water
# Method: Samples were prepared by dispensing 10 mg of sample into 10 mL of a balanced salt solution comprising 1% Tween 80. The sample in solution was then subjected to vigorous shaking and a number of rapid expulsions through a 22 gauge needle. 2 mL of this suspension was then filtered through a […] Durapore membrane filter which retained essentially all of the particles. The filter is then rinsed with 2 mL water.
# This method of sample preparation avoids the problem of particles formed of large agglomerations of crystals which appear to dissolve as large crystals and therefore bias results.
# Dissolution was performed using a flow through system that pumps a degassed solvent solution of 20% methanol in water through the dissolution chamber at around 11 mL per minute. […] The combination of flow rate and solvent solution dissolves the TA crystals at a rate that enables a flow-through cell to record absorbance values in the acceptable range for virtually all of the 30 minute run time and for the experiment to be completed in a reasonable period. […]
# Approximately 2 mg of sample was prepared on a filter as outlined above. […] The absorbance was recorded on a chart recorder with 2 absorbance units causing 100% pen deflection.
# Dissolution studies were carried out for a period of 30 minutes with a flow rate of 11 mL per minute. Average absorbance values over 2 minute periods were calculated. […]
# [2] = Equilibrium solubility of triamcinolone acetonide in various media (HPLC); assay type: physicochemical; settings: thermodynamic from solid, read-out: Triamcinolone acetonide conc. (equilibrium solubility)
# Excerpt: An HPLC assay method was developed for TA. This was used to determine the equilibrium solubility for TA in various media. It was considered that a solution of acetonitrile may be advantageous for the maintenance of sink conditions, wherein a large surplus of solvent/absorbant/carrier capacity is maintained.
# [3] = Saline saturated with TA (filter validation stock); assay type: physicochemical
# Method: Solutions at 1% and 10% of saturation were prepared from a stock of saline saturated with TA (15 μg/mL). The solutions were filtered through a syringe filter and aliquots (200 μL) of the filtrate were collected. […] Consequently, an 800 μL prefiltration volume (see dissolution method above) was assumed sufficient to ensure that the filtrate concentration was representative of the dissolved TA concentration in the dissolution vessel.
# [4] = cited from earlier work
# [5] = system: clinically significant macular edema; settings: intravitreal injection of the usual dose (4 mg); cited from earlier work
compound,measurement,setting,value
"CC1(C)O[C@@H]2CC3C4CCC5=CC(=O)C=CC5(C)[C@@]4(F)C(O)CC3(C)C2(C(=O)CO)O1 (stereo partly shown) [triamcinolone acetonide, 9-fluoro-11,21-dihydroxy-16,17-[1-methylethylidinebis(oxy)]pregna-1,4-diene-3,20-dione]",solubility of TA in the solvent solution relative to TA in water alone,[1],2-3 times
same,solubility thermodynamic,"[2]; 5% Acetonide, aqueous with cosolvent or surfactant or cyclodextrin",5.2 µg/mL
same,solubility thermodynamic,"[2]; 10% Acetonide, aqueous with cosolvent or surfactant or cyclodextrin",9.1 µg/mL
same,solubility thermodynamic,"[2]; 30% Acetonide, aqueous with cosolvent or surfactant or cyclodextrin",128 µg/mL
same,solubility thermodynamic,"[2]; distilled water, water",8.8 µg/mL
same,solubility thermodynamic,"[2]; normal saline, saline or isotonic",8.2 µg/mL
same,concentration of saline saturated with TA,[3],15000 ng/mL
same,persistence at measurable concentrations in the vitreous humour,"[4]; patients who have not undergone vitrectomy, assuming five half-lives",93 ± 28 days
same,mean elimination half-life,"[4]; single intravitreal injection, nonvitrectomized patients",18.6 days
same,time after which beneficial effects are diminished,[5],approximately three
